Experiments:
cyclo-oxygenase = assay: inhibition of cyclo-oxygenase, enzyme assay according to the method of Blackwell and Flower; type: biochemical
lipoxygenase = assay: inhibition of lipoxygenase, enzyme assay according to the method of Blackwell and Flower; type: biochemical

cyclo-oxygenase, sequence (P23219 24-599): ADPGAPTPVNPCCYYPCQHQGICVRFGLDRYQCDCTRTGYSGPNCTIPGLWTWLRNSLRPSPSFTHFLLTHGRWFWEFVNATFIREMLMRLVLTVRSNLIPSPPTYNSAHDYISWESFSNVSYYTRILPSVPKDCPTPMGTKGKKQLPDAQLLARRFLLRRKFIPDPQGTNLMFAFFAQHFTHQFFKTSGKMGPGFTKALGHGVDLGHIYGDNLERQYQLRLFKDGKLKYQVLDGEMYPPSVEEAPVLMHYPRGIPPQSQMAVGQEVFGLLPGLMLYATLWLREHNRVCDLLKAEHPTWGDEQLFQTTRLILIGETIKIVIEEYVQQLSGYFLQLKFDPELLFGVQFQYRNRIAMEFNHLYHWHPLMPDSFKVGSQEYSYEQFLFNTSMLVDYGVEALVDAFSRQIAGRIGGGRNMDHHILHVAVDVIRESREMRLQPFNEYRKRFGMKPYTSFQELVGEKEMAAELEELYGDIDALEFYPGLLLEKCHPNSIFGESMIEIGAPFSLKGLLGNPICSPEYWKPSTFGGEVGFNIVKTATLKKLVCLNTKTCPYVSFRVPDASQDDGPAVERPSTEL

| SMILES | IC50 (cyclo-oxygenase) [nM] | IC50 (lipoxygenase) [nM] |
| --- | --- | --- |
| COc1ccc(C=NC2=NN(c3ccc(Br)c(C(F)(F)F)c3)CC2)cc1 [Example 12, 1-(4-bromo-3-trifluoromethylphenyl)-3-(4-methoxybenzylideneamino)-2-pyrazoline] | ~1000 | ~1000 |
| Cc1ccc(C=NC2=NN(c3ccc4ccccc4c3)CC2)cc1 [Example 8, 3-(4-methylbenzylideneamino)-1-(2-naphthyl)-2-pyrazoline] | 5000 | 12000 |
| CC1CN(c2cccc(C(F)(F)F)c2)N=C1N=Cc1ccccc1O (stereo not shown) [Example 18, 4-Methyl-3-salicylideneamino-1-(3-trifluoromethylphenyl)-2-pyrazoline] | ~1000 | ~1000 |
| FC(F)(F)c1cccc(N2CCC(N=Cc3ccccc3)=N2)c1 [Example 15, 3-Benzylideneamino-1-(3-trifluoromethylphenyl)-2-pyrazoline] | ~3000 | < 1000 |
| FC(F)(F)c1cccc(N2CCC(N=Cc3ccc[nH]3)=N2)c1 [Example 3, 3-(2-pyrrolylmethyleneamino)-1-(3-trifluoromethylphenyl)-2-pyrazoline] | < 1000 | 1000 |
| Oc1ccccc1C=NC1=NN(c2cccc(C(F)(F)F)c2)CC1 [Example 4, 3-salicylideneamino-1-(3-trifluoromethylphenyl)-2-pyrazoline] | ~3000 | ~3000 |
| Oc1ccccc1C=NC1=NN(c2ccc(Br)c(C(F)(F)F)c2)CC1 [Example 11, 1-(4-bromo-3-trifluoromethylphenyl)-3-(2-hydroxybenzylideneamino)-2-pyrazoline] | ~5000 | > 10000 |
| O=C(O)CCCCOc1cccc(O)c1C=NC1=NN(c2cccc(C(F)(F)F)c2)CC1 [Example 1, 3-(2-4'-carboxybutoxy-6-hydroxybenzylideneamino)-1-(3-trifluoromethylphenyl)-2-pyrazoline] | < 3000 | 10000 to 20000 |
| FC(F)(F)c1cccc(N2CCC(N=Cc3ccccn3)=N2)c1 [Example 2, 3-(2-pyridylmethyleneamino)-1-(3-trifluoromethylphenyl)-2-pyrazoline] | 1000 | ~3000 |
| FC(F)(F)c1cccc(N2CCC(N=Cc3cccc4ccccc34)=N2)c1 [Example 7, 3-(1-naphthylmethyleneamino)-1-(3-trifluoromethylphenyl)-2-pyrazoline] | 10000 | 6000 |
| CC(C)(C)c1cccc(N2CCC(N)=N2)c1 [Example 13, 3-Amino-1-(3-t-butylphenyl)-2-pyrazoline] | < 1000 | < 1000 |

Reference: patent US4572913A, “Use of 3-(arylmethyleneamino)-1-aryl-2-pyrazolines in the prophylaxis and treatment of inflammation, pain, pyresis, and asthma” (Burroughs Wellcome Co., priority 1980, dated 1986)
